Test results taken from article PMC11466185, “Mechanisms and efficacy of small molecule latency-promoting agents to inhibit HIV reactivation ex vivo” (JCI Insight, 2024).
“And” between values parts separate entries of the source, which are not always exact repeats. Identical values can stand only once.

Tested on: HIV transcripts (TAR, LLTR, Pol, PolyA, TatRev)
Experiment: Latency reversal assay: cell-associated HIV transcripts (RT-ddPCR) 24 hours after anti-CD3/CD28 activation of PBMCs from ART-suppressed PWH
Type: cell-based
Design: key to TatRev: % of activated DMSO control, normalized to 1 μg total RNA; Elongated (LLTR) HIV transcripts, median relative to activated DMSO, initial screening / Midtranscribed (Pol) HIV transcripts, median relative to activated DMSO, initial screening / Multiply spliced (TatRev) HIV transcripts, median relative to activated DMSO, initial screening: concentration or dose not given beside the values
Conditions: for HIV transcriptional completion, ratio PolyA/LLTR: Figure 3C; for Pol HIV transcripts (DMSO αCD3/28 = 100) / PolyA HIV transcripts (DMSO αCD3/28 = 100) / TatRev HIV transcripts (DMSO αCD3/28 = 100): αCD3/28-activated, ruxolitinib 4μM, triptolide 25-50nM, alvocidib 40nM, dinaciclib 8nM, AZD4573 8nM, quercetin 5μM, pladienolide B 10nM, isoginkgetin 25μM, herboxidiene 5nM, KRIBB11 2.5μM, tanespimycin 5μM, mithramycin A 25nM; for PolyA/LLTR / TatRev/PolyA / LLTR/TAR: DMSO+CD3/28 = 1, Fig 3B, C and D; for PolyA / TatRev: DMSO+αCD3/28 = 100, Fig 3A
Description: We selected 26 small molecules targeting pathways implicated in HIV transcription or the blocks to HIV transcription underlying latency (Supplemental Table 1). […] Initial screening of all drugs was performed in freshly isolated PBMCs from 2 ART-suppressed individuals (Figure 1 and Supplemental Figure 2). PBMCs were cultured in the presence of individual drugs in DMSO or DMSO alone as a control, subsequently activated (anti-CD3/CD28), and harvested after 24 hours. […] The progression through different blocks to HIV transcription was quantified by measuring the levels of initiated (TAR), 5′ elongated (LLTR), midtranscribed/unspliced (Pol), completed (PolyA), and multiply spliced (TatRev) HIV transcripts. The levels of those HIV transcripts were normalized to 1 μg of total cellular RNA (to normalize for the effect of the drug on global cellular transcription) and expressed as a percentage of the activated DMSO control.
Figure 1 Screening of candidate LPAs by measuring the change in multiply spliced HIV transcripts after activation. Each drug was tested in PBMCs from 2 ART-suppressed study participants (denoted in the legend by varying symbol shapes). PBMCs were aliquoted into wells at 6 × 10^6 cells/well. After activation, the cells were cultured with antiretrovirals in the presence of individual drugs in DMSO or DMSO alone as control. All conditions were tested in the presence of CD3/28 T cell–activating beads, except for the unactivated DMSO condition. (A) After 24 hours, the viability was measured by trypan blue staining and then normalized to the levels of the activated DMSO (% of activated DMSO). Bars indicate medians. (B) Total cellular RNA was extracted, and the levels of multiply spliced HIV transcripts (TatRev) were measured by RT-ddPCR, normalized to 1 μg of total cellular RNA, and expressed as a percentage of the activated DMSO control (% of activated DMSO). RT-dd, reverse transcription digital droplet; vRNA, viral RNA; HAT, histone acetyltransferase.
The ability of our candidate LPAs to inhibit HIV transcriptional progression after activation was examined in PBMCs from a minimum of 7 PWH per drug tested (Figure 3). PBMCs were cultured in the presence of individual drugs in DMSO or in DMSO alone as a control, subsequently activated (anti-CD3/CD28), and harvested after 24 hours.
Each drug was tested in PBMCs from 7 ART-suppressed study participants. The PBMCs were aliquoted into wells at 6 × 10^6 cells/well. After activation, the cells were cultured with antiretrovirals in the presence of individual drugs in DMSO or DMSO alone as control. All conditions were tested in the presence of CD3/28 T cell–activating beads, except for the unactivated DMSO condition. After 24 hours, total RNA was extracted, and the progression through different stages of HIV transcription was quantified by measuring the levels of initiated (TAR), 5′ elongated (LLTR), midtranscribed/unspliced (Pol), completed (PolyA), and multiply spliced (TatRev) HIV transcripts. (A) The levels of all HIV transcripts were normalized to 1 μg of total cellular RNA and expressed as a percentage of the activated DMSO control (% of activated DMSO). Medians are shown as well as the individual values per study participant in different colors. (B–D) The effect of each drug on HIV transcriptional progression after activation was analyzed by the ratio of one HIV transcript to another. Ratios are independent of HIV infection frequency or normalization to cell numbers. Shown are the proportion of (B) all HIV transcripts that were elongated (LLTR/TAR), (C) elongated HIV transcripts that were completed spliced (PolyA/LLTR), and (D) completed transcripts that were multiply spliced (TatRev/PolyA).

[1] = 24 hours, compared with activated DMSO
[2] = 2.5μM, 24 h after αCD3/28 activation, each column one participant
[3] = initial screening, 2 participants, 24 hours, Supplemental Figure 2

CC(=O)N[C@@H]1CCC[C@H](C(=O)Nc2cc(-c3cnn4c3CC(C)(C)C4)c(Cl)cn2)C1 [AZD4573]
HIV transcriptional completion, ratio PolyA/LLTR [1]: reduced

CNc1ccc([N+](=O)[O-])c(Nc2ccc3[nH]ncc3c2)n1 [KRIBB11]
LLTR HIV transcripts (DMSO+αCD3/28 = 100) [2]: 71.02 and 48.35 and 38.5 and 36.33 and 35.09 and 15.92 and 24.32
Pol HIV transcripts (DMSO+αCD3/28 = 100) [2]: 19.01 and 13.73 and 14.61 and 76.94 and 12.5 and 1.36 and 0
TAR HIV transcripts (DMSO+αCD3/28 = 100) [2]: 122.57 and 166.06 and 91.93 and 75.64
TatRev HIV transcripts (DMSO+αCD3/28 = 100) [2]: 11.03 and 9.21 and 38.96 and 12.13 and 2.02 and 0 and 8.77
HIV transcriptional elongation, ratio LLTR/TAR (24 hours, compared with activated DMSO, Figure 3B): inhibited
HIV transcriptional completion, ratio PolyA/LLTR [1]: reduced completion
Reduction of multiply spliced or completed HIV transcripts in drug screen (selection as candidate LPA) (initial screening, 2 participants, 24 hours): more than 50%
Elongated (LLTR) HIV transcripts, median relative to activated DMSO, initial screening [3]: 60%
Midtranscribed (Pol) HIV transcripts, median relative to activated DMSO, initial screening [3]: 16%
Pol HIV transcripts (DMSO αCD3/28 = 100) (participant 2027): 73.68
PolyA HIV transcripts (DMSO αCD3/28 = 100) (participant 2027): 106.67
TatRev HIV transcripts (DMSO αCD3/28 = 100) (participant 2027): 11.11
Pol HIV transcripts (DMSO αCD3/28 = 100) (participant 2147a): 33.33
PolyA HIV transcripts (DMSO αCD3/28 = 100) (participant 2147a): 22.8
TatRev HIV transcripts (DMSO αCD3/28 = 100) (participant 2147a): 46.99
Pol HIV transcripts (DMSO αCD3/28 = 100) (participant 2256): 169.23
PolyA HIV transcripts (DMSO αCD3/28 = 100) (participant 2256): 89.76
TatRev HIV transcripts (DMSO αCD3/28 = 100) (participant 2256): 84.19
PolyA HIV transcripts (DMSO αCD3/28 = 100) (participant 2461): 176.92
Pol HIV transcripts (DMSO αCD3/28 = 100) (participant 2747): 8.97
PolyA HIV transcripts (DMSO αCD3/28 = 100) (participant 2747): 19.67
TatRev HIV transcripts (DMSO αCD3/28 = 100) (participant 2747): 30
Multiply spliced HIV transcripts (TatRev) (Fig 1B) (study participant 150a, 24 hours): 11.03 % of activated DMSO
PolyA/LLTR (study participant 150a): 0.3562
TatRev/PolyA (study participant 150a): 0.4361
PolyA (study participant 150a): 25.3
TatRev (study participant 150a): 11.03
Multiply spliced HIV transcripts (TatRev) (Fig 1B) (study participant 152, 24 hours): 9.21 % of activated DMSO
PolyA/LLTR (study participant 152): 0.4136
TatRev/PolyA (study participant 152): 0.4605
PolyA (study participant 152): 20
TatRev (study participant 152): 9.21
PolyA/LLTR (study participant 163): 0.6494
TatRev/PolyA (study participant 163): 1.558
PolyA (study participant 163): 25
TatRev (study participant 163): 38.96
LLTR/TAR (study participant 1379): 0.1731
PolyA/LLTR (study participant 1379): 0.3046
TatRev/PolyA (study participant 1379): 0
PolyA (study participant 1379): 4.85
TatRev (study participant 1379): 0
LLTR/TAR (study participant 2147b): 0.3199
PolyA/LLTR (study participant 2147b): 0.5626
TatRev/PolyA (study participant 2147b): 0.4866
PolyA (study participant 2147b): 34.68
TatRev (study participant 2147b): 12.13
LLTR/TAR (study participant 2256): 0.2113
PolyA/LLTR (study participant 2256): 0.2703
TatRev/PolyA (study participant 2256): 0.2127
PolyA (study participant 2256): 9.49
TatRev (study participant 2256): 2.02
LLTR/TAR (study participant 5557): 0.3215
PolyA/LLTR (study participant 5557): 0.6238
TatRev/PolyA (study participant 5557): 0.5784
PolyA (study participant 5557): 15.17
TatRev (study participant 5557): 8.77
